Measured values as given in PubChem BioAssay (NCI).
Where “and” joins values, the source holds several entries; their conditions need not be identical. Identical values can stand only once.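 Cultured in 96-well plates, cells were exposed to test compound for 48 hours across five concentrations. The concentration for 50% growth inhibition is given as GI50. TGI is the concentration that stops growth completely.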 Where a SMILES comes first, the peptide text is derived from it. The star is where a group is joined. Boc = CC(C)(C)OC(=O)*

Legend:
Experiment in all cases: NCI anticancer screen, dose series, 48 h
[1] = tested on: HCT-116 colon
[2] = tested on: MDA-MB-231 breast
[3] = tested on: OVCAR-8 ovarian
[4] = tested on: A498 renal
[5] = tested on: SNB-19 CNS
[6] = tested on: MALME-3M melanoma
[7] = tested on: UACC-62 melanoma
[8] = tested on: HOP-92 NSCLC
[9] = tested on: MDA-MB-435
[10] = tested on: UO-31 renal

Compound COc1ccc(C2=C(c3ccc(OC)cc3)C(=O)N3CCCC3C2)cc1 (stereo unspecified) has a GI50 [1] of 2.96 µM, a TGI [1] of 32.8 µM and a GI50 [2] of 25.4 µM. For the same compound, the TGI [2] was greater than 73.9 µM, the GI50 [3] was 10.4 µM and the TGI [3] was greater than 100 µM. For the same compound, the GI50 [4] was 45.9 µM, the TGI [4] was greater than 100 µM and the GI50 [5] was 45.6 µM. The TGI [5] was greater than 100 µM, the GI50 [6] was 52.6 µM and the TGI [6] was greater than 100 µM. The GI50 [7] was 9.09 µM, the TGI [7] was greater than 100 µM and the GI50 [8] was greater than 95.1 µM. For the same compound, the TGI [8] was greater than 100 µM, the GI50 [9] was 12.3 µM and the TGI [9] was greater than 100 µM. It also gave a GI50 [10] of 19.7 µM and a TGI [10] greater than 100 µM.

For O=C1c2cccc3cccc(c23)C(=O)N1CCCCCN1CCN(CCCCCOc2ccc(-c3nc4ccc(N5CCOCC5)cc4[nH]3)cc2)CC1, the GI50 [1] was 5.06 µM, the TGI [1] was greater than 100 µM and the GI50 [2] was 12.6 µM. It also gave a TGI [2] greater than 20.4 µM, a GI50 [3] of 1.32 µM and a TGI [3] of 4.95 µM. The GI50 [4] was greater than 74.9 µM, the TGI [4] was greater than 100 µM and the GI50 [5] was greater than 46.1 µM. It also gave a TGI [5] greater than 60 µM, a GI50 [6] of 17.7 µM and a TGI [6] of 40 µM. The GI50 [7] was 16.1 µM, the TGI [7] was greater than 57.1 µM and the GI50 [8] was 25.1 µM. It also gave a TGI [8] greater than 58.2 µM, a GI50 [9] of 3.59 µM and a TGI [9] of 13.2 µM. For the same compound, the GI50 [10] was 3.47 µM and the TGI [10] was 34.7 µM.

CN1CC[C@@H](c2c(O)cc(O)c3c(=O)cc(-c4ccc(C(F)(F)F)cc4Cl)oc23)[C@@H]1CO showed a GI50 [1] of 11.4 µM, a TGI [1] of 24.2 µM and a GI50 [2] of 12.7 µM. It also gave a TGI [2] of 34.3 µM, a GI50 [3] of 18.2 µM and a TGI [3] of 42 µM. For the same compound, the GI50 [4] was 14.2 µM, the TGI [4] was 27.6 µM and the GI50 [5] was 21 µM. It also gave a TGI [5] of 62.7 µM, a GI50 [6] of 18.4 µM and a TGI [6] of 36.9 µM. For the same compound, the GI50 [7] was 14.6 µM, the TGI [7] was 32.8 µM and the GI50 [8] was 13 µM. The TGI [8] was 40.3 µM, the GI50 [9] was 10 µM and the TGI [9] was 23 µM. For the same compound, the GI50 [10] was 11 µM and the TGI [10] was 37.8 µM.

With Cn1c(Nc2ccc(C(F)(F)F)cc2)nc2cc(Oc3ccnc(-c4ncc(C(F)(F)F)[nH]4)c3)ccc21 the GI50 [1] was 0.0787 µM, the TGI [1] was 7.06 µM and the GI50 [2] was 0.803 µM. For the same compound, the TGI [2] was 12.2 µM, the GI50 [3] was 0.775 µM and the TGI [3] was 14.1 µM. It also gave a GI50 [4] of 0.0297 µM, a TGI [4] of 0.851 µM and a GI50 [5] of 1.04 µM. It also gave a TGI [5] of 20.1 µM, a GI50 [6] of 0.0284 µM and a TGI [6] of 0.154 µM. The GI50 [7] was 0.0519 µM, the TGI [7] was 3.89 µM and the GI50 [8] was 0.408 µM. It also gave a TGI [8] of 7.26 µM, a GI50 [9] of 0.0774 µM and a TGI [9] of 9.44 µM. The GI50 [10] was 0.239 µM and the TGI [10] was 10.2 µM.

COc1ccccc1Nc1ncc(-c2ccccc2)o1 showed a GI50 [1] greater than 25 µM, a TGI [1] greater than 25 µM and a GI50 [2] greater than 25 µM. The TGI [2] was greater than 25 µM, the GI50 [3] was greater than 25 µM and the TGI [3] was greater than 25 µM. For the same compound, the GI50 [4] was greater than 25 µM, the TGI [4] was greater than 25 µM and the GI50 [5] was greater than 25 µM. The TGI [5] was greater than 25 µM, the GI50 [6] was greater than 25 µM and the TGI [6] was greater than 25 µM. The GI50 [7] was greater than 25 µM, the TGI [7] was greater than 25 µM and the GI50 [8] was greater than 25 µM. It also gave a TGI [8] greater than 25 µM, a GI50 [9] greater than 25 µM and a TGI [9] greater than 25 µM. It also gave a GI50 [10] of 13.7 µM and a TGI [10] greater than 25 µM.

COC(=O)C(C)NC(=O)C(CCSC)NC(=O)C(Cc1ccccc1)NC(=O)OC(C)(C)C (stereo not drawn) (Boc-Phe-Met-Ala-OMe; configuration not given here) gave a GI50 [1] of 17.1 µg/mL, a GI50 [2] of 33.2 µg/mL and a TGI [2] greater than 100 µM. It also gave a TGI [3] greater than 100 µM, a TGI [5] greater than 100 µM and a TGI [6] greater than 100 µM. The GI50 [7] was 28.2 µg/mL, the TGI [7] was greater than 100 µM and the TGI [8] was greater than 100 µM. The GI50 [9] was 39.2 µg/mL, the TGI [9] was greater than 100 µM and the TGI [10] was greater than 100 µM.

In the case of O=C(Nc1cc(C(F)(F)F)ccc1Cl)c1cccc(NC2=C(Cl)C(=O)N(Cc3ccccc3)C2=O)c1, the GI50 [1] is reported as 10.3 µM, the TGI [1] is reported as greater than 100 µM and the GI50 [2] is reported as 32.7 µM. It also gave a TGI [2] greater than 100 µM, a GI50 [3] of 47.6 µM and a TGI [3] greater than 100 µM. It also gave a GI50 [4] of 28.5 µM, a TGI [4] of 92.9 µM and a GI50 [5] greater than 100 µM. It also gave a TGI [5] greater than 100 µM, a GI50 [7] of 26.5 µM and a TGI [7] greater than 100 µM. It also gave a GI50 [8] of 19.1 µM, a TGI [8] greater than 100 µM and a GI50 [9] of 15.7 µM. For the same compound, the TGI [9] was greater than 100 µM, the GI50 [10] was 0.7 µM and the TGI [10] was 58.2 µM.

CSc1nc(NC2OC(COC(C)=O)C(OC(C)=O)C(OC(C)=O)C2OC(C)=O)c(N=CC=Nc2c(NC3OC(COC(C)=O)C(OC(C)=O)C(OC(C)=O)C3OC(C)=O)nc(SC)n(C)c2=O)c(=O)n1C (stereo unspecified) gave a GI50 [1] greater than 50 µM, a TGI [1] greater than 100 µM and a GI50 [2] of 25.2 µM. For the same compound, the TGI [2] was 50 µM and > 100 µM, the GI50 [3] was greater than 50 µM and the TGI [3] was greater than 100 µM. For the same compound, the GI50 [4] was greater than 50 µM, the TGI [4] was > 50 µM and 82.8 µM and the GI50 [5] was 21.1 µM. For the same compound, the TGI [5] was 50 µM and 92.1 µM, the GI50 [6] was greater than 50 µM and the TGI [6] was greater than 100 µM. It also gave a GI50 [7] greater than 50 µM, a TGI [7] greater than 100 µM and a GI50 [8] of 14.8 µM. For the same compound, the TGI [8] was 50 µM and 64.5 µM, the GI50 [9] was greater than 50 µM and the TGI [9] was greater than 100 µM. For the same compound, the GI50 [10] was greater than 50 µM and the TGI [10] was greater than 100 µM.

For Cc1cc2cc3c(=O)[nH]c(=O)[nH]c3nc2cc1C, the TGI [1] was greater than 100 µM, the TGI [2] was greater than 100 µM and the TGI [3] was greater than 100 µM. The TGI [4] was greater than 100 µM, the TGI [5] was greater than 100 µM and the TGI [6] was greater than 100 µM. For the same compound, the TGI [7] was greater than 100 µM, the TGI [8] was greater than 100 µM and the TGI [9] was greater than 100 µM. For the same compound, the TGI [10] was greater than 100 µM.

For O=S(=O)(Nc1ccc(Cl)cc1Cl)c1ccc(-c2cnc(C3CC3)o2)cc1, the GI50 [1] was 0.431 µM, the TGI [1] was greater than 65.4 µM and the GI50 [2] was 2.08 µM. It also gave a TGI [2] of 28.4 µM, a GI50 [3] of 1.79 µM and a TGI [3] greater than 82.1 µM. The GI50 [4] was 0.197 µM, the TGI [4] was 0.875 µM and the GI50 [5] was 0.538 µM. For the same compound, the TGI [5] was greater than 100 µM, the GI50 [7] was 0.391 µM and the TGI [7] was 26.7 µM. The GI50 [8] was 0.491 µM, the TGI [8] was 15.3 µM and the GI50 [9] was 0.182 µM. The TGI [9] was 0.727 µM, the GI50 [10] was 1.06 µM and the TGI [10] was 37.1 µM.

O=C(CNS(=O)(=O)Cc1ccccc1)NNc1ccccc1 showed a TGI [1] greater than 100 µM, a TGI [2] greater than 100 µM and a TGI [3] greater than 100 µM. It also gave a TGI [5] greater than 100 µM, a TGI [6] greater than 100 µM and a TGI [7] greater than 25.6 µM. It also gave a TGI [8] greater than 100 µM, a TGI [9] greater than 100 µM and a TGI [10] greater than 100 µM.

In the case of COc1ccc(/C(=C\C=C(C#N)C#N)Sc2nc3ccccc3s2)cc1, the GI50 [2] is reported as 6.71 µM, the TGI [2] is reported as 14.4 µM and the GI50 [3] is reported as 13.7 µM. For the same compound, the TGI [3] was 33.9 µM, the GI50 [4] was 16.4 µM and the TGI [4] was 28.5 µM. For the same compound, the GI50 [5] was 12.6 µM, the TGI [5] was 29.6 µM and the GI50 [7] was 8.63 µM. It also gave a TGI [7] of 18.7 µM, a GI50 [8] of 0.717 µM and a TGI [8] of 4.14 µM. For the same compound, the GI50 [9] was 8.34 µM, the TGI [9] was 18.5 µM and the GI50 [10] was 15.6 µM. For the same compound, the TGI [10] was greater than 50 µM.

With Cc1ccc2c(C3C(C#N)=C(N)Oc4cc5ccccc5cc43)cc(=O)oc2c1 (stereo unspecified) the GI50 [1] was 0.531 µM, the TGI [1] was 32.8 µM and the GI50 [2] was 8.2 µM. For the same compound, the TGI [2] was greater than 100 µM, the GI50 [3] was 4.47 µM and the TGI [3] was greater than 100 µM. For the same compound, the GI50 [4] was 4.23 µM, the TGI [4] was 86.3 µM and the GI50 [5] was 1.79 µM. It also gave a TGI [5] greater than 100 µM, a GI50 [7] of 0.704 µM and a TGI [7] greater than 100 µM. The GI50 [8] was 19.7 µM, the TGI [8] was 84 µM and the GI50 [9] was 0.286 µM. The TGI [9] was 1.07 µM, the GI50 [10] was 7.68 µM and the TGI [10] was greater than 100 µM.
